Source: ChEMBL document CHEMBL5321282, “Design, Synthesis, and Biological Evaluation of Esculetin-Furoxan-DEAC Ternary Hybrids for Anti-Triple Negative Breast Cancer” (J Med Chem, 2023)
Calls of active or inactive are those of the source. The calls are words filed in the database; no cut-off is given here.

Tests used:
MDA-MB-231 [1] = experiment: Induction of apoptosis in human MDA-MB-231 cells assessed as total apoptotic cells at 5 to 20 nM incubated for 24 hrs by Annexin V-FITC/PI staining based flow cytometric analysis (Rvb =10.03%); format: functional; conditions: dose 5-20 nM
MDA-MB-231 [2] = experiment: Antiproliferative activity against human MDA-MB-231 cells assessed as effect on NO level at 20 nM measured after 24 hrs in presence of PTIO by MTT assay; format: functional, cell-based
MDA-MB-231 [3] = experiment: Induction of cell cycle arrest in human MDA-MB-231 cells assessed as accumulation of cells at S phase at 20 nM measured after 24 hrs by PI staining based flow cytometric analysis (Rvb =24.1%); format: functional
MDA-MB-231 [4] = experiment: Induction of apoptosis in human MDA-MB-231 cells assessed as increase in Bad level incubated for 8 hrs by Western blotting analysis; format: functional, cell-based; conditions: dose 5-20 nM
MDA-MB-231 [5] = experiment: Induction of apoptosis in human MDA-MB-231 cells assessed as early apoptotic cells at 5 nM incubated for 24 hrs by Annexin V-FITC/PI staining based flow cytometric analysis (reference value: 4.90%); format: functional
MDA-MB-231 [6] = experiment: Antitumor activity against human MDA-MB-231 cells xenografted in BALB/C mouse assessed as inhibition of tumor volume at 5 mg/kg, ip administered every 2 days measured after 3 weeks; format: functional; set-up: scale not given: the % may be the effect or the level left
MDA-MB-231 [7] = experiment: Induction of apoptosis in human MDA-MB-231 cells assessed as late apoptotic cells at 20 nM incubated for 24 hrs by Annexin V-FITC/PI staining based flow cytometric analysis (reference value: 4.90%); format: functional
[8] = Toxicity in BALB/C mouse xenografted with human MDA-MB-231 cells assessed as heart damage at 2.5 to 5 mg/kg, ip administered every 2 days measured after 3 weeks by H and E staining based analysis; format: organism-based; conditions: in vivo, 504 h, dose 2.5-5 mg/kg
MDA-MB-231 [9] = experiment: Induction of apoptosis in human MDA-MB-231 cells assessed as increase in cleaved caspase-3 level incubated for 8 hrs by Western blotting analysis; format: functional, cell-based; conditions: dose 5-20 nM
MDA-MB-231 [10] = experiment: Induction of mitochondrial membrane potential depolarization in human MDA-MB-231 cells assessed as increase in green fluorescence at 5 to 20 nM incubated for 24 hrs by JC-1 staining based inverted fluorescent microscopic analysis; format: functional, cell-based; conditions: dose 5-20 nM
MDA-MB-231 [11] = experiment: Induction of apoptosis in human MDA-MB-231 cells assessed as increase in Bcl2 level incubated for 8 hrs by Western blotting analysis; format: functional, cell-based; conditions: dose 5-20 nM
MDA-MB-231 [12] = experiment: Induction of apoptosis in human MDA-MB-231 cells assessed as decrease in mitochondrial SMAC level at 5 to 20 nM incubated for 8 hrs by Western blotting analysis; format: functional, cell-based; conditions: dose 5-20 nM
MDA-MB-231 [13] = experiment: Induction of ROS production in human MDA-MB-231 cells measured after 24 hrs by DCFH-DA staining based fluorescence microscopic analysis; format: functional, cell-based; conditions: dose 5-20 nM
MDA-MB-231 [14] = experiment: Induction of apoptosis in human MDA-MB-231 cells assessed as late apoptotic cells at 5 nM incubated for 24 hrs by Annexin V-FITC/PI staining based flow cytometric analysis (reference value: 4.90%); format: functional
MDA-MB-231 [15] = experiment: Induction of cell cycle arrest in human MDA-MB-231 cells assessed as accumulation of cells at G1 phase at 20 nM measured after 24 hrs by PI staining based flow cytometric analysis (Rvb =58%); format: functional
MDA-MB-231 [16] = experiment: Antiproliferative activity against human MDA-MB-231 cells assessed as inhibition of cell growth measured after 48 hrs by MTT assay; format: functional, cell-based; conditions: MDA-MB-231, 48 h
MDA-MB-231 [17] = experiment: Induction of cell cycle arrest in human MDA-MB-231 cells assessed as accumulation of cells at G2 phase at 20 nM measured after 24 hrs by PI staining by flow cytometric analysis (Rvb =18.1%); format: functional
MCF7 = experiment: Antiproliferative activity against human MCF7 cells assessed as inhibition of cell growth measured after 48 hrs by MTT assay; format: functional, cell-based; conditions: MCF7, 48 h
MDA-MB-231 [18] = experiment: Induction of cell cycle arrest in human MDA-MB-231 cells assessed as accumulation of cells at S phase at 5 nM measured after 24 hrs by PI staining by flow cytometric analysis (Rvb =24.1%); format: functional
[19] = Toxicity in BALB/C mouse xenografted with human MDA-MB-231 cells assessed as kidney damage at 2.5 to 5 mg/kg, ip administered every 2 days measured after 3 weeks by H and E staining based analysis; format: organism-based; conditions: in vivo, 504 h, dose 2.5-5 mg/kg
MDA-MB-231 [20] = experiment: Induction of apoptosis in human MDA-MB-231 cells assessed as increase in CypD level incubated for 8 hrs by Western blotting analysis; format: functional, cell-based; conditions: dose 5-20 nM
MDA-MB-231 [21] = experiment: Induction of apoptosis in human MDA-MB-231 cells assessed as early apoptotic cells at 20 nM incubated for 24 hrs by Annexin V-FITC/PI staining based flow cytometric analysis (reference value: 4.90%); format: functional
[22] = Toxicity in BALB/C mouse xenografted with human MDA-MB-231 cells assessed as liver damage at 2.5 to 5 mg/kg, ip administered every 2 days measured after 3 weeks by H and E staining based analysis; format: organism-based; conditions: in vivo, 504 h, dose 2.5-5 mg/kg
MDA-MB-231 [23] = experiment: Induction of mitochondrial membrane potential depolarization in human MDA-MB-231 cells assessed as decrease in red fluorescence at 5 to 20 nM incubated for 24 hrs by JC-1 staining based inverted fluorescent microscopic analysis; format: functional, cell-based; conditions: dose 5-20 nM

SMILES: CCN(CC)c1ccc2cc(C(=O)OCCCCCOc3cc4ccc(=O)oc4cc3OCCCCCCOc3no[n+]([O-])c3S(=O)(=O)c3ccccc3)c(=O)oc2c1
- Activity (MDA-MB-231 [1]): 71.69%
- Activity (MDA-MB-231 [2]): inactive
- Activity (MDA-MB-231 [3]): 21%
- Activity (MDA-MB-231 [4]): Dose-Dependent Effect
- Activity (MDA-MB-231 [5]): 12.2%
- Activity (MDA-MB-231 [6]): 63.5%
- Activity (MDA-MB-231 [7]): 39%
- Activity [8]: Non-Toxic
- Activity (MDA-MB-231 [9]): Dose-Dependent Effect
- Activity (MDA-MB-231 [10]): Active
- Activity (MDA-MB-231 [11]): Dose-Dependent Effect
- Activity (MDA-MB-231 [12]): Active
- Activity (MDA-MB-231 [13]): Dose-Dependent Effect
- Activity (MDA-MB-231 [14]): 20.4%
- Activity (MDA-MB-231 [15]): 57.9%
- IC50 (MDA-MB-231 [16]): 8 nM
- Activity (MDA-MB-231 [17]): 21.4%
- IC50 (MCF7): 2140 nM
- Activity (MDA-MB-231 [18]): 29.3%
- Activity [19]: Non-Toxic
- Activity (MDA-MB-231 [20]): Dose-Dependent Effect
- Activity (MDA-MB-231 [21]): 31.9%
- Activity [22]: Non-Toxic
- Activity (MDA-MB-231 [23]): Active
